In patent publication US20120202822A1, “COMBINATION” (priority 2009, published 2012):

Tested on: seven Compound A resistant clones derived from the A375 PF11 melanoma cell line
Assay: Cell Growth Inhibition Assay, summary over resistant clones
Assay type: cell-based
Details: Homo sapiens, A375P-F11, 72 h, 3 days, read-out: IC50s, Compound B alone, range over clones
Description: Melanoma A375 PF11 line was derived from A375 (ATCC). 12R5-1, 12R5-3, 12R8-1, 12R8-3, 16R5-2, 16R6-3 and 16R6-4 are single cell clones derived from mixed populations of A375 PF11 cells that were selected to grow in Compound A to concentrations of 1200 and 1600 nM. All lines were cultured in RPMI 1640 medium containing 10% fetal bovine serum (FBS).
All cells were cultured for a minimum of 72 hours prior to cell plating. Cells were assayed in a 96-well tissue culture plate (NUNC 136102) of RPMI medium containing 10% FBS for all cells at 1,000 cells per well. Approximately 24 hours after plating, cells were exposed to ten, three-fold serial dilutions of compound or the combination of the two agents at a constant molar to molar ratio of 1:10 Compound A to Compound B in RPMI media containing 10% FBS. Cells were incubated in the presence of compounds for 3 days. ATP levels were determined by adding Cell Titer Glo® (Promega) according to the manufacturer's protocol. Briefly, Cell Titer Glo® was added each plate, incubated for 30 minutes then luminescent signal was read on the SpectraMax L plate reader with a 0.5 sec integration time.
Inhibition of cell growth was estimated after treatment with compound or combination of compounds for three days and comparing the signal to cells treated with vehicle (DMSO). Cell growth was calculated relative to vehicle (DMSO) treated control wells. […]

COc1ncc(-c2ccc3nccc(-c4ccnnc4)c3c2)cc1NS(=O)(=O)c1ccc(F)cc1F [Compound B, 2,4-difluoro-N-{2-(methyloxy)-5-[4-(4-pyridazinyl)-6-quinolinyl]-3-pyridinyl}benzenesulfonamide]
IC50: 41 to 212 nM
